Holding throughout (experiment): DTP human tumour cell line panel, 48 h
For assay [1], the system named is CAKI-1 renal.
Assay [2] has as its system CCRF-CEM leukemia.
Assay [3] has as its system KM12 colon.
Assay [4] concerns M14 melanoma.
Assay [5] has as its system NCI-H460 lung.
The test system of assay [6] is OVCAR-3 ovarian.
Assay [7] concerns RPMI-8226 leukemia.
For assay [8], the system named is SF-295 CNS.
In assay [9] the test system is SK-MEL-28 melanoma.

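All cell lines were grown in 96-well plates and treated with compound for 48 hours. GI50 is the concentration that inhibits growth by half. TGI: total growth inhibition.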

Turning to `COc1ccc2c(c1)/C(=C\c1cccnc1)C(=O)N2`, the GI50 – broadly, the concentration that inhibits growth by half – in assay [1] was 3.68 µM; in [2], 10.8 µM; in [3], 19.7 µM; in assay [4], 31 µM; in assay [5], 19.2 µM; in [6], 40.5 µM. Moreover, the GI50 was 18.6 µM in assay [7], 13.4 µM in assay [8] and 23.4 µM in assay [9]. Moreover, the TGI (in general, the concentration at which net growth stops) in assay [1] was 9.05 µM; in assay [2] it was more than 100 µM; in assay [3] it was 57.8 µM; in [4], 83.8 µM; in assay [5] it was 62.4 µM; in assay [6], more than 100 µM. Besides, the TGI in assay [7] is 76.7 µM; in [8], 60.4 µM; in assay [9], 64.7 µM.

Consider `COc1ccc2c(c1)C(=O)c1c-2n(CCCN=[N+]=[N-])c(=O)c2cc(N(C)C)ccc12`, for which the GI50 in [1] is more than 100 µM; in assay [3] it was 3.66 µM; in assay [4], more than 100 µM; in assay [5], more than 100 µM; in assay [6] it was more than 100 µM; in [7], more than 100 µM. Besides, the GI50 in assay [8] and in assay [9] was more than 100 µM each time. The TGI in assay [1], in [3], in assay [4], in [5], in assay [6] and in assay [7] was more than 100 µM in each case. The TGI in assay [8] and in assay [9] was more than 100 µM throughout.

As for `Nc1nc2c(c(=O)[nH]1)NC(CO)CN2` (stereo not given), the total growth inhibition concentration (TGI) in assay [2], in [3], in [4], in [5], in [6] and in assay [7] was more than 100 µM each time. For the same compound, the TGI in assay [8] and in [9] was more than 100 µM each time.

For `CN(C)c1ccc([O-])cc1.CN(C)c1ccc([O-])cc1.CN(C)c1ccc([O-])cc1.CN(C)c1ccc([O-])cc1.[Ti+4]`, the GI50 in assay [1] was more than 100 µM; in [2], 43.7 µM; in [3], 55 µM; in assay [4], more than 100 µM; in assay [5], 37.4 µM; in [6] it was more than 100 µM. In addition, the figures for the GI50 in [7], in assay [8] and in assay [9] were 30.9 µM, more than 100 µM and more than 100 µM, respectively. Further, the concentration for total growth inhibition (TGI) in [1], in assay [2], in assay [3], in [4], in assay [5] and in assay [6] was more than 100 µM in each case. In addition, the TGI in assay [7], in assay [8] and in assay [9] was more than 100 µM each time.

Turning to `CC(=O)Nc1ccc(C(=O)NN2C(=O)C(Cl)C2c2ccc([N+](=O)[O-])cc2)cc1` (stereo not given), the TGI in assay [1], in assay [2], in assay [4], in assay [5], in assay [6] and in assay [8] was more than 100 µM each time. Besides, in assay [9], the total growth inhibition concentration (TGI) is more than 100 µM.

Consider `CCc1cccc(C(C)C)c1NC(=O)C(=O)CC(=O)c1c(C)n([O-])c2ccccc2[n+]1=O`, for which the TGI in [1], in assay [2], in assay [4], in [5], in [7] and in [9] was more than 100 µM each time.

Consider `C1C[OH+]CC[OH+]CCNCC[OH+]CC[OH+]CCN1.[Cl-].[Pt+4]`, for which the GI50 in [1] is more than 100 µM; in [2], 30.1 µM; in assay [3], more than 100 µM; in assay [4], more than 100 µM; in assay [6], more than 100 µM; in [7], more than 100 µM. Besides, the GI50 in [8] and in assay [9] was more than 100 µM in each case. For the same compound, the TGI in assay [1], in assay [2], in [3], in [4], in assay [6] and in assay [7] was more than 100 µM in each case. Further, the concentration for total growth inhibition (TGI) in assay [8] and in assay [9] was more than 100 µM throughout.

`CCCCCCCCCCCCCCN`: the TGI in assay [1], in assay [2], in [3], in assay [5], in assay [6] and in assay [7] was more than 100 µM each time. Moreover, the TGI in [8] and in [9] was more than 100 µM each time.

Take `Cn1nc(-c2ccccc2)c(C(=O)/C=C/c2ccc(F)cc2)c(N2CCCCC2)c1=O`: the TGI was determined as 27.3 µM in assay [1]; 6.46 µM in [2]; 28.6 µM in [4]; 18.1 µM in assay [5]; 6.98 µM in [7]; 16.2 µM in assay [9].

On to `CC1CC#CCOC(=O)CCCC1=O` (stereo not given), for which the concentration for total growth inhibition (TGI) in [2], in assay [3], in assay [4], in assay [5], in assay [6] and in assay [7] was more than 100 µM each time. The total growth inhibition concentration (TGI) in [8] and in assay [9] was more than 100 µM each time.

With `O=C(Nc1cccc([N+](=O)[O-])c1)C(=O)C(C(=O)c1ccccc1-c1ccccc1)C1OC(=O)c2ccccc21` (stereo not given), the TGI was found to be 99 µM in [2]; 44.2 µM in [3]; 41.1 µM in assay [4]; 88 µM in assay [5]; 36.4 µM in assay [6]; 60.3 µM in assay [7]. For the same compound, the concentration for total growth inhibition (TGI) is 66.5 µM in assay [8] and 67.6 µM in assay [9].

Turning to `C/C(=N\O)c1cccc(Nc2cc(-n3ccnn3)c3ccccc3n2)c1`, the GI50 in [1] is 21.3 µM; in [2], 11.7 µM; in assay [3], 15.1 µM; in [5] it was 48.9 µM; in assay [6], 20.2 µM; in assay [7] it was 12.5 µM. In addition, the GI50 in assay [8] was 18.5 µM; in assay [9] it was 0.444 µM. Moreover, the TGI was 70.6 µM in assay [1]; 31.3 µM in assay [2]; 33.3 µM in [3]; more than 100 µM in assay [5]; 55.8 µM in assay [6]; 32 µM in assay [7]. Besides, the TGI in [8] is 47.8 µM; in assay [9], 30.2 µM.

(Values after PubChem BioAssay (NCI).)
